Source: patent publication US20240287005A1, “ISOXAZOLINE PESTICIDES” (Elanco Tiergesundheit AG, priority 2021, published 2024)

Test system: Ctenocephalides felis
Test: In vitro evaluation of contact activity against adult cat fleas
Conditions: adult fleas in coated glass vial, after 48 h
Description: In vitro contact tests with […] are conducted with adult males and females of Ctenocephalides felis. For the coating of the test vials, the test substance is dissolved and diluted in acetone p.a. to the desired concentration. The solution is then homogeneously applied to the inner walls and base of a glass vial by turning and rocking on an orbital shaker until complete evaporation of the solvent. For example, with 900 ppm solution of test substance an area-based dose of 5 μg/cm^2 is achieved.
After the solvent is completely evaporated, approximately 10 adult fleas are applied to each coated test vial, which is then sealed with a perforated plastic lid and incubated in a horizontal position in the dark at room temperature and ambient humidity. Insecticidal activity is determined after 48 h. Fleas which remain motionless on the base of the test vial or move uncoordinated without occasionally jumping or walking straight are considered dead or moribund, respectively. An insecticidal activity of 100% means all fleas were dead or moribund. An insecticidal activity of 0% means none of the fleas was affected. From a dose response curve the respective EC50 was calculated (4-parameter logistic curve fitting).

Cc1cc(C2=NOC(c3cc(C(F)(F)F)cc(C(F)(F)F)c3F)(C(F)(F)F)C2)ccc1C(=O)NCC(=O)NCC(F)(F)F (single isomer, unassigned) [Example 3.1]
EC50 insecticidal activity (fleas dead or moribund): < 0.05 μg/cm^2
